Source: ChEMBL document CHEMBL4311964, “Potent combretastatin A-4 analogs containing 1,2,4-triazole: Synthesis, antiproliferative, anti-tubulin activity, and docking study” (Eur J Med Chem, 2019)

Assays:
HL-60 = assay: Antiproliferative activity against human HL60 cells assessed as cell growth inhibition measured after 48 hrs by MTT assay; format: functional, cell-based; details: HL-60, 48 h
HepG2 [1] = assay: Antiproliferative activity against human HepG2 cells assessed as cell growth inhibition measured after 48 hrs by MTT assay; format: functional, cell-based; details: HepG2, 48 h
MCF7 = assay: Antiproliferative activity against human MCF7 cells assessed as cell growth inhibition measured after 48 hrs by MTT assay; format: functional, cell-based; details: MCF7, 48 h
HepG2 [2] = assay: Induction of apoptosis in human HepG2 cells assessed as activation of caspase 3 measured after 0.5 to 1 hrs by fluorescence assay relative to control; format: functional
HepG2 [3] = assay: Induction of apoptosis in human HepG2 cells assessed as necrotic cells at IC50 concentration by annexinV-FITC/propidium iodide staining based flow cytometry (reference value: […]); format: functional
HepG2 [4] = assay: Cell cycle arrest in human HepG2 cells assessed as accumulation at S phase at IC50 concentration by DNase/propidium iodide staining based flow cytometry analysis (reference value: 32.51 %); format: functional
Tubulin [5] = target: Tubulin (Bos taurus, UniProt Q6B856+Q862L2+Q862F3); assay: Inhibition of [3H] colchicine binding to bovine brain tubulin incubated for 30 mins by scintillation proximity assay
Tubulin [6] = target: Tubulin (Sus scrofa, UniProt P02554+P02550); assay: Inhibition of porcine brain tubulin polymerization assessed as decrease in fluorescence intensity measured every 60 sec for 90 mins in presence of GTP by DAPI staining based fluorescence assay
HepG2 [7] = assay: Cell cycle arrest in human HepG2 cells assessed as accumulation at G2/M phase at IC50 concentration by DNase/propidium iodide staining based flow cytometry analysis (reference value: 10.06 %); format: functional
[8] = target: Tubulin beta (Homo sapiens) (UniProt P68371+Q9H4B7+Q13509+P04350+Q3ZCM7+P07437+Q13885+Q9BVA1+Q9BUF5+A6NNZ2); assay: Inhibition of tubulin beta polymerization in human HepG2 cells at IC50 using TMB substrate preincubated for 2 hrs followed by substrate addition measured after 15 to 20 mins in presence of GTP by ELISA relative to control; format: cell-based
HepG2 [9] = assay: Cell cycle arrest in human HepG2 cells assessed as accumulation at G0/G1 phase at IC50 concentration by DNase/propidium iodide staining based flow cytometry analysis (reference value: 57.43 %); format: functional
HepG2 [10] = assay: Induction of apoptosis in human HepG2 cells assessed as early apoptotic cells at IC50 concentration by annexinV-FITC/propidium iodide staining based flow cytometry (reference value: 0.69 %); format: functional
HepG2 [11] = assay: Induction of apoptosis in human HepG2 cells assessed as late apoptotic cells at IC50 concentration by annexinV-FITC/propidium iodide staining based flow cytometry (reference value: 0.38 %); format: functional
HepG2 [12] = assay: Cell cycle arrest in human HepG2 cells assessed as accumulation at pre-G1 phase at IC50 concentration by DNase/propidium iodide staining based flow cytometry analysis (reference value: 1.59 %); format: functional
HepG2 [13] = assay: Induction of apoptosis in human HepG2 cells assessed as viable cells at IC50 concentration by annexinV-FITC/propidium iodide staining based flow cytometry (reference value: 98.41 %); format: functional

For `COc1cc(-c2nc(C(=O)Nc3ccc(F)c(Cl)c3)nn2-c2ccc(F)c(Cl)c2)cc(OC)c1OC`, which IC50 (HL-60) is on record?
The IC50 was 5470 nM.

What about the IC50 (HepG2 [1]) of the same compound?
The IC50 was 900 nM.

What about the IC50 (MCF7) of the same compound?
The IC50 was 120 nM.

`COc1ccccc1NC(=O)c1nc(-c2cc(OC)c(OC)c(OC)c2)n(-c2ccc(F)c(Cl)c2)n1` was tested. Which “fold change (FC)” value (HepG2 [2]) did it give?
The value was 7.

What about the Activity (HepG2 [3]) of the same compound?
Its Activity is 2.66%.

And the IC50 (HL-60)?
Its IC50 is 4 nM.

What about the Activity (HepG2 [4]) of the same compound?
Its Activity is 24.67%.

What about the IC50 (Tubulin [5]) of the same compound?
Its IC50 is 3580 nM.

What about the Kd (Tubulin [5]) of the same compound?
The Kd was 540 nM.

What about the Ki (Tubulin [5]) of the same compound?
The Ki was 260 nM.

And the IC50 (Tubulin [6])?
The IC50 was 1030 nM.

What about the Activity (HepG2 [7]) of the same compound?
Its Activity is 40.56%.

What about the inhibition [8] of the same compound?
The inhibition was 62%.

And the Activity (HepG2 [9])?
Its Activity is 34.77%.

What about the Activity (HepG2 [10]) of the same compound?
The Activity was 5.24%.

What about the Activity (HepG2 [11]) of the same compound?
The Activity was 11.32%.

And the IC50 (HepG2 [1])?
Its IC50 is 350 nM.

And the Activity (HepG2 [12])?
Its Activity is 19.22%.

And the IC50 (MCF7)?
Its IC50 is 1510 nM.

And the Activity (HepG2 [13])?
Its Activity is 80.78%.

For `COc1cc(-c2nc(C(=O)Nc3ccc(C(=O)O)cc3)nn2-c2ccc(F)c(Cl)c2)cc(OC)c1OC`, which IC50 (HL-60) is on record?
The IC50 was 1180 nM.

And the IC50 (HepG2 [1])?
Its IC50 is 1590 nM.

What about the IC50 (MCF7) of the same compound?
Its IC50 is 50 nM.

Which IC50 (HL-60) does the source give for `COc1cc(-c2nc(C(=O)Nc3ccccc3F)nn2-c2ccc(F)c(Cl)c2)cc(OC)c1OC` here?
Its IC50 is 10 nM.

What about the IC50 (HepG2 [1]) of the same compound?
The IC50 was 12700 nM.

And the IC50 (MCF7)?
Its IC50 is 190 nM.

`COc1ccc(-n2nc(C(=O)Nc3ccc(F)c(F)c3F)nc2-c2cc(OC)c(OC)c(OC)c2)cc1Cl` was tested. Which “fold change (FC)” value (HepG2 [2]) did it give?
Its value is 9.

What about the Activity (HepG2 [3]) of the same compound?
The Activity was 2.78%.

What about the IC50 (HL-60) of the same compound?
The IC50 was 2660 nM.

And the Activity (HepG2 [4])?
Its Activity is 18.61%.

And the IC50 (Tubulin [6])?
The IC50 was 760 nM.

And the Activity (HepG2 [7])?
Its Activity is 55.08%.

What about the inhibition [8] of the same compound?
Its inhibition is 82%.

And the Activity (HepG2 [9])?
The Activity was 26.31%.

What about the Activity (HepG2 [10]) of the same compound?
The Activity was 6.06%.

And the Activity (HepG2 [11])?
Its Activity is 22.2%.

What about the IC50 (HepG2 [1]) of the same compound?
Its IC50 is 40 nM.

And the Activity (HepG2 [12])?
The Activity was 31.04%.

And the IC50 (MCF7)?
The IC50 was 2100 nM.

What about the Activity (HepG2 [13]) of the same compound?
The Activity was 68.96%.

For `COc1cc(-c2nc(C(=O)Nc3ccc(F)c(F)c3F)nn2-c2ccc(F)c(Cl)c2)cc(OC)c1OC`, which IC50 (HL-60) is on record?
Its IC50 is 1320 nM.

What about the IC50 (HepG2 [1]) of the same compound?
The IC50 was 410 nM.

What about the IC50 (MCF7) of the same compound?
Its IC50 is 140 nM.

What does the source list for `COc1cc(-c2nc(C(=O)Nc3cc(F)cc(F)c3)nn2-c2ccc(F)c(Cl)c2)cc(OC)c1OC`?
IC50 (HL-60): 3750 nM; IC50 (HepG2 [1]): 710 nM; IC50 (MCF7): 4910 nM

`COc1ccc(NC(=O)c2nc(-c3cc(OC)c(OC)c(OC)c3)n(-c3ccc(F)c(Cl)c3)n2)c(C)c1` was tested. Which IC50 (HL-60) did it give?
Its IC50 is 360 nM.

And the IC50 (HepG2 [1])?
The IC50 was 580 nM.

And the IC50 (MCF7)?
The IC50 was 1560 nM.

With `COc1ccc(-n2nc(C(=O)Nc3ccc(OC(F)(F)F)cc3)nc2-c2cc(OC)c(OC)c(OC)c2)cc1Cl` as the compound, how does the IC50 (HL-60) read?
The IC50 was 810 nM.

And the IC50 (HepG2 [1])?
The IC50 was 7110 nM.

What about the IC50 (MCF7) of the same compound?
Its IC50 is 39 nM.

How did the IC50 (HL-60) turn out when `COc1cc(-c2nc(C(=O)Nc3ccc(OC(F)(F)F)cc3)nn2-c2ccc(F)c(Cl)c2)cc(OC)c1OC` was run?
Its IC50 is 160 nM.

What about the IC50 (HepG2 [1]) of the same compound?
Its IC50 is 100 nM.

And the IC50 (MCF7)?
The IC50 was 310 nM.

How did the IC50 (HL-60) turn out when `COc1ccc(C)cc1NC(=O)c1nc(-c2cc(OC)c(OC)c(OC)c2)n(-c2ccc(F)c(Cl)c2)n1` was run?
The IC50 was 1820 nM.

And the IC50 (HepG2 [1])?
Its IC50 is 2820 nM.

What about the IC50 (MCF7) of the same compound?
The IC50 was 130 nM.

Which IC50 (HL-60) does the source give for `CCOc1ccc(NC(=O)c2nc(-c3cc(OC)c(OC)c(OC)c3)n(-c3ccc(F)c(Cl)c3)n2)cc1` here?
The IC50 was 600 nM.

And the IC50 (HepG2 [1])?
Its IC50 is 1490 nM.

What about the IC50 (MCF7) of the same compound?
The IC50 was 520 nM.

How did the IC50 (HL-60) turn out when `COc1cc(-c2nc(C(=O)Nc3cccc(F)c3)nn2-c2ccc(F)c(Cl)c2)cc(OC)c1OC` was run?
Its IC50 is 620 nM.

What about the IC50 (HepG2 [1]) of the same compound?
Its IC50 is 990 nM.

And the IC50 (MCF7)?
The IC50 was 110 nM.

How did the IC50 (HL-60) turn out when `COc1cc(-c2nc(C(=O)Nc3ccc(F)cc3)nn2-c2ccc(F)c(Cl)c2)cc(OC)c1OC` was run?
Its IC50 is 300 nM.

And the IC50 (HepG2 [1])?
The IC50 was 520 nM.

What about the IC50 (MCF7) of the same compound?
Its IC50 is 180 nM.

Which results are given for `COc1ccc(NC(=O)c2nc(-c3cc(OC)c(OC)c(OC)c3)n(-c3ccc(F)c(Cl)c3)n2)cc1`?
IC50 (HL-60): 2260 nM; IC50 (HepG2 [1]): 750 nM; IC50 (MCF7): 650 nM

With `COc1ccc(-n2nc(C(=O)Nc3ccc(F)c(Cl)c3)nc2-c2cc(OC)c(OC)c(OC)c2)cc1Cl` as the compound, how does the IC50 (HL-60) read?
Its IC50 is 230 nM.

And the IC50 (Tubulin [5])?
Its IC50 is 2110 nM.

What about the Kd (Tubulin [5]) of the same compound?
Its Kd is 320 nM.

What about the Ki (Tubulin [5]) of the same compound?
Its Ki is 150 nM.

And the IC50 (Tubulin [6])?
Its IC50 is 700 nM.

What about the inhibition [8] of the same compound?
Its inhibition is 73%.

And the IC50 (HepG2 [1])?
Its IC50 is 680 nM.

What about the IC50 (MCF7) of the same compound?
The IC50 was 30 nM.

Which results are given for `COc1cc(-c2nc(C(=O)Nc3ccccc3)nn2-c2ccc(F)c(Cl)c2)cc(OC)c1OC`?
IC50 (HL-60): 1000 nM; IC50 (HepG2 [1]): 2230 nM; IC50 (MCF7): 170 nM

What does the source list for `COc1cccc(NC(=O)c2nc(-c3cc(OC)c(OC)c(OC)c3)n(-c3ccc(F)c(Cl)c3)n2)c1`?
IC50 (HL-60): 800 nM; IC50 (HepG2 [1]): 560 nM; IC50 (MCF7): 440 nM

Which results are given for `COc1ccc(NC(=O)c2nc(-c3cc(OC)c(OC)c(OC)c3)n(-c3ccc(F)c(Cl)c3)n2)cc1Cl`?
IC50 (HL-60): 700 nM; IC50 (HepG2 [1]): 2140 nM; IC50 (MCF7): 1010 nM
